Where two headings read alike, the source gives them in different places.
How the values were obtained:
[1] = system: neuronal maturation; experiment: Effect of GABAA receptor potentiator or antagonist treatment on neuronal maturation (SGZ, 4 weeks after BrdU); format: in vivo, mice
Protocol: (§1) Female mice (3, 6-7, or 12-13 months of age) received two intraperitoneal injections of BrdU (Sigma, 100 mg/kg body weight) 6 h apart. One day, 3 days, and 4 and 10 weeks after the second injection, the brains were perfused with phosphate-buffered saline and collected.
To investigate the effect of GABAA receptor potentiator or antagonist treatment on NSC proliferation, female mice (6-7 months of age) were treated with once-daily intraperitoneal injections of pentobarbital (PB) (Sigma, 50 mg/kg; apoE4-KI mice) or picrotoxin (PTX) (Sigma, 4 mg/kg; apoE3-KI mice). Twenty-four hours after the last treatment, mice received two injections of BrdU (100 mg/kg) 6 h apart and were sacrificed 1 day later. To investigate the effect of GABAA receptor potentiator or antagonist treatment on neuronal maturation, female mice (6-7 months of age) received two injections of BrdU 6 h apart. Twenty-four hours later, apoE3-KI mice received daily injections of PTX for 7 consecutive days, and apoE4-KI mice received daily injections of PB for 28 consecutive days. Mice were sacrificed 4 weeks after the second BrdU injection.
Mouse brains were fixed in 4% paraformaldehyde for 3 days, and coronal sections (40 μm) were cut continuously throughout the entire hippocampus with a vibratome. Every eighth section was immunostained with various primary and secondary antibodies and examined with a laser-scanning confocal system.
Immunostaining was carried out with anti-BrdU (mouse monoclonal, Chemicon, 1:400; or rat monoclonal, Abcam, 1:400) and/or with antibodies against other cellular markers, including mouse anti-NeuN (Chemicon, 1:400), mouse anti-nestin (Chemicon, 1:50), goat anti-Dcx (Santa Cruz Biotechnology, 1:40), goat anti-Sox2 (Santa Cruz Biotechnology, 1:350), rabbit anti-GFAP (Invitrogen, 1:400), mouse anti-β-III-tubulin (Promega, 1:800), mouse anti-S100β (Abcam, 1:400), and rat anti-Noggin (R&D Systems, 1:200). Corresponding secondary antibodies (Texas Red and fluorescein, 1:250, Vector Laboratories) were used. For Ki67, somatostatin, and GAD67 immunostaining, rabbit anti-Ki67 (Bethyl Labs, 1:1000), rat anti-somatostatin (Chemicon, 1:100), and mouse anti-GAD67 (Chemicon, 1:1500) were used with biotinylated goat anti-rabbit IgG (1:250), rabbit anti-rat IgG (1:250), and rabbit anti-mouse IgG (1:250) as secondary antibodies and diaminobenzadine as a chromagen (Dako).
(§2) Mouse brains were fixed in 4% paraformaldehyde for 3 days, and coronal sections (40 μm) were cut continuously throughout the entire hippocampus with a vibratome. Single- or double-immunostained cells on both sides of the hippocampus of all stained sections were counted and calculated. Numbers of newborn cells (BrdU^+) and immature neurons (BrdU^+ and Dcx^+) in the SGZ were determined 1 or 3 days after BrdU injection; numbers of surviving newborn cells (BrdU^+) and mature neurons (BrdU^+ and NeuN^+) in the SGZ were determined 4 or 10 weeks after injection. Newborn neurons that had migrated from the SVZ to the OB were quantified 4 weeks after BrdU injection as reported (Galvão et al., 2008). The number of GABAergic interneurons in the hilus of the dentate gyrus was determined by counting GAD67- and somatostatin-positive cells.

[2] = system: NSC proliferation; experiment: Effect of GABAA receptor potentiator or antagonist treatment on NSC proliferation (BrdU+ cells in SGZ); format: in vivo, mice; details: 1 day after BrdU injection
Protocol: as §1
To investigate the effect of GABAA receptor potentiator or antagonist treatment on NSC proliferation, female mice (6-7 months of age) were treated with once-daily intraperitoneal injections of pentobarbital (PB) (Sigma, 50 mg/kg; apoE4-KI mice) or picrotoxin (PTX) (Sigma, 4 mg/kg; apoE3-KI mice). Twenty-four hours after the last treatment, mice received two injections of BrdU (100 mg/kg) 6 h apart and were sacrificed 1 day later. […]
as §2, with “The number of GABAergic interneurons in the hilus of the dentate gyrus was determined by counting GAD67- and somatostatin-positive cells.” left out

[3] = system: dendritic development of newborn neurons; experiment: Dendritic development of retrovirus-GFP labelled newborn hippocampal neurons; format: in vivo, mice
[4] = system: GABAA receptors; format: cell-based, mice; details: for GABAergic miniature SSCs (mSSCs): BMI 100 μM, in presence of DNQX, D-AP5 and TTX, apoE3-KI and apoE4-KI mice
From the text: ApoE3-KI and apoE4-KI mice (2-3 months) were sacrificed 2 weeks after retrovirus-GFP injection and processed for slice preparation as described (Duan et al., 2007; Ge et al., 2006a). Whole-cell voltage-clamp recordings from visually identified GFP^+ neurons (2 weeks after injection) were obtained with an infrared differential interference contrast video microscopy system.
Next the level of GABAergic synaptic innervation, which is critical for neuronal development of newborn hippocampal cells (Ge et al., 2006a; Ge et al., 2006b; Liu et al., 2006; Tozuka et al., 2005), was assessed. GABAergic miniature SSCs (mSSCs) were recorded from GFP^+ neurons (resting membrane potential Vm=−65 mV) 2 weeks after injection of the retrovirus-GFP construct. These studies were conducted in the presence of 6,7-dinitroquinoxaline-2,3-dione (DNQX) (20 μM) and D-(−)-2-amino-5-phosphonovaleric acid (D-AP5) (50 μM) to block glutamate-mediated currents and tetrodotoxin (TTX) (1 μM) to block action potential-mediated GABA release.
In the presence of DNQX and D-AP5, GABA-evoked postsynaptic currents (ePSCs) recorded from GFP^+ neurons were generated by electrical stimulation of GABAergic axons in the molecular layer of the dentate gyrus. This indicates a functional coupling between hilar GABAergic interneurons and newborn neurons in both apoE3-KI and apoE4-KI mice. However, the ePSC peak amplitude was ˜40% lower in apoE4-KI mice (FIGS. 6C, 6D, and 6F). This finding is consistent with a reduction of presynaptic GABAergic inputs onto newborn neurons available for electrical activation in apoE4-KI mice. […] This finding reconfirms the intact GABAA receptor function in newborn neurons of apoE4-KI mice.

[5] = system: NSCs from apoE-KO mice; experiment: NSC culture and neural differentiation in vitro; format: cell-based; details: neuronal differentiation conditions, Noggin 500 ng/ml
Protocol: NSCs were isolated from brains of apoE3-KI, apoE4-KI, wildtype, and apoE-KO mice at postnatal day 1 (P1) using a modified neurosphere method (Brewer and Torricelli, 2007; Ray and Gage, 2006). The expression of apoE and Noggin in NSCs with different apoE genotypes was assessed by anti-apoE and anti-Noggin (R&D Systems) western blots of cell lysates. Neural differentiation of the established NSCs with different apoE genotypes was induced in vitro as reported (Song et al., 2002). In some experiments, recombinant mouse Noggin (R&D Systems) was added at 500 ng/ml into the medium during neural differentiation. Neuronal and astrocytic differentiation of NSCs at 7 days was determined and quantified.

[6] = apoE4-KI mice, daily PB for 4 weeks
[7] = apoE3-KI mice, daily PTX for 7 days, 4 weeks after BrdU injection

## CCCC(C)C1(CC)C(=O)NC(=O)NC1=O (stereo not drawn) [pentobarbital]
[1]; [6]
  number of immature neurons: decreased the number of immature neurons
  number of mature neurons: increased the number of mature neurons
[2]; apoE4-KI mice, PB 50 mg/kg i.p. once daily
  number of newborn cells (BrdU+) in the SGZ: decreased the number of newborn cells to levels similar to those of wildtype and untreated apoE3-KI mice
[3]; apoE3-KI mice treated with PB
  length of dendritic branches of newborn neurons: did not alter the length or number of dendritic branches
  number of dendritic branches of newborn neurons: did not alter the length or number of dendritic branches
[3]; apoE4-KI mice treated with PB
  dendritic branch number of newborn neurons: increases in both dendritic length and branch number to levels similar to those in wildtype and apoE3-KI mice
  dendritic length of newborn neurons: increases in both dendritic length and branch number to levels similar to those in wildtype and apoE3-KI mice
[3]; wildtype mice treated with PB
  number of dendritic branches of newborn neurons: trend toward significant increase (p=0.053)

## picrotoxin
[1]; [7]
  number of immature neurons: the number of immature neurons was increased
  number of mature neurons: the number of mature neurons was decreased
  survival of newborn cells: the survival of newborn cells was unaltered
[2]; apoE3-KI mice, PTX 4 mg/kg i.p. once daily for 3 days
  number of newborn cells (BrdU+) in the SGZ: increased the number of newborn cells 1 day after BrdU injection to a level similar to that in untreated apoE4-KI mice

## NCCCC(=O)O [GABA, gamma-aminobutyric acid]
[4]; exogenous GABA 500 μM, GFP+ neurons from apoE3-KI vs apoE4-KI mice
  current amplitudes evoked by focal application: evoked similar current amplitudes in GFP^+ neurons from apoE3-KI and apoE4-KI mice

## C[N+]1(C)CCc2cc3c(cc2[C@H]1[C@@H]1OC(=O)c2c1ccc1c2OCO1)OCO3.[I-] [Bicuculline methoiodide]
[4]; BMI 100 μM bath application, in presence of DNQX and D-AP5
  ePSCs (evoked postsynaptic currents): Currents were blocked
[4]
  GABAergic miniature SSCs (mSSCs): abolished the mSSCs
[4]; listed as BMI
  GABAergic miniature SSCs (mSSCs): The mSSCs were blocked

B1: recombinant mouse Noggin: recombinant mouse Noggin (R&D Systems), bone-morphogenetic protein (BMP) inhibitor (protein, UniProt P97466 28-232, looked up)
Noggin: QHYLHIRPAPSDNLPLVDLIEHPDPIFDPKEKDLNETLLRSLLGGHYDPGFMATSPPEDRPGGGGGPAGGAEDLAELDQLLRQRPSGAMPSEIKGLEFSEGLAQGKKQRLSKKLRRKLQMWLWSQTFCPVLYAWNDLGSRFWPRYVKVGSCFSKRSCSVPEGMVCKPSKSVHLTVLRWRCQRRGGQRCGWIPIQYPIISECKCSC
[5]
  astrogenesis: inhibited astrogenesis
  neurogenesis: stimulated neurogenesis to levels similar to those of NSCs from wildtype mice

Source: patent US20110135611A1 (priority 2009, published 2011)
